Holding throughout (type): biochemical
One experiment concerns the target T1, PI3K gamma (Homo sapiens, UniProt P48736).
T1 construct: purchased Invitrogen Corp., Carlsbad, CA, USA
Kind of experiment: Luciferase-based luminescence assay (ADP Glo), PI3K gamma enzymatic activity. The note with it: inhibition of enzymatic activity, 25 μM ATP, read-out: IC50 p110γ. On the procedure: (§1) PI3K catalyzes the conversion of phosphatidylinositol-4,5-bisphosphate (PIP2) and ATP to phosphatidylinositol-3,4,5-trisphosphate (PIP3) and ADP. For all assays, the reaction buffer comprised 50 mM HEPES, pH 7.5, 3 mM MgCl2, 1 mM EGTA, 100 mM NaCl, 0.03% CHAPS and 2 mM DTT. Compounds for testing were dissolved and serially diluted in 100% DMSO (total of 10 concentrations), then diluted 1:25 in reaction buffer.
(§2) PI3K beta and gamma enzymatic activity was determined by measuring the amount of ADP produced following the kinase reaction using a luciferase-based luminescence assay (ADP Glo®, Promega Corp., Madison, WI, USA). PI3K enzyme solutions were prepared by diluting PI3K beta (Millipore, Billerica, MA, USA) or PI3K gamma (Invitrogen Corp., Carlsbad, CA, USA) in reaction buffer, to 4× the final assay concentration (final concentrations of enzymes were 4.8 nM and 7.6 nM for PI3K beta and PI3K gamma respectively). A substrate solution was prepared by mixing PIP2 and ATP in reaction buffer at 2× the final assay concentration (final concentrations were 50 μM and 25 μM for PIP2 and ATP respectively). 2.5 μL each of the compound and kinase mixtures were added to individual wells of white low volume 384-well assay plates and mixed by shaking. The reactions were started by adding 5 μL of substrate mixture per well and shaking. The assay plates were covered and reactions were allowed to proceed for 1 hour. Then, 5 μL of reaction mix was transferred to another white low volume 384-well plate, and 5 μL of ADP-Glo™ reagent was added. The plates were briefly centrifuged and incubated for 40 minutes, after which 10 μL of kinase detection buffer was added. The plates then were centrifuged briefly, shaken slowly and equilibrated at room temperature for 30 minutes, after which luminescence was measured using a FlexStation plate reader (Molecular Devices, Sunnyvale, CA, USA). IC50 values were determined by curve fitting using Graphpad Prism software (Graphpad Software, La Jolla, CA, USA).
In general terms: ADP-Glo first removes unused ATP, then detects ADP through luciferase.

A further experiment deals with T2, PI3K alpha (Homo sapiens, UniProt P42336).
T2 construct: purchased Invitrogen Corp., Carlsbad, CA, USA
T2 sequence (P42336 whole entry, species assumed): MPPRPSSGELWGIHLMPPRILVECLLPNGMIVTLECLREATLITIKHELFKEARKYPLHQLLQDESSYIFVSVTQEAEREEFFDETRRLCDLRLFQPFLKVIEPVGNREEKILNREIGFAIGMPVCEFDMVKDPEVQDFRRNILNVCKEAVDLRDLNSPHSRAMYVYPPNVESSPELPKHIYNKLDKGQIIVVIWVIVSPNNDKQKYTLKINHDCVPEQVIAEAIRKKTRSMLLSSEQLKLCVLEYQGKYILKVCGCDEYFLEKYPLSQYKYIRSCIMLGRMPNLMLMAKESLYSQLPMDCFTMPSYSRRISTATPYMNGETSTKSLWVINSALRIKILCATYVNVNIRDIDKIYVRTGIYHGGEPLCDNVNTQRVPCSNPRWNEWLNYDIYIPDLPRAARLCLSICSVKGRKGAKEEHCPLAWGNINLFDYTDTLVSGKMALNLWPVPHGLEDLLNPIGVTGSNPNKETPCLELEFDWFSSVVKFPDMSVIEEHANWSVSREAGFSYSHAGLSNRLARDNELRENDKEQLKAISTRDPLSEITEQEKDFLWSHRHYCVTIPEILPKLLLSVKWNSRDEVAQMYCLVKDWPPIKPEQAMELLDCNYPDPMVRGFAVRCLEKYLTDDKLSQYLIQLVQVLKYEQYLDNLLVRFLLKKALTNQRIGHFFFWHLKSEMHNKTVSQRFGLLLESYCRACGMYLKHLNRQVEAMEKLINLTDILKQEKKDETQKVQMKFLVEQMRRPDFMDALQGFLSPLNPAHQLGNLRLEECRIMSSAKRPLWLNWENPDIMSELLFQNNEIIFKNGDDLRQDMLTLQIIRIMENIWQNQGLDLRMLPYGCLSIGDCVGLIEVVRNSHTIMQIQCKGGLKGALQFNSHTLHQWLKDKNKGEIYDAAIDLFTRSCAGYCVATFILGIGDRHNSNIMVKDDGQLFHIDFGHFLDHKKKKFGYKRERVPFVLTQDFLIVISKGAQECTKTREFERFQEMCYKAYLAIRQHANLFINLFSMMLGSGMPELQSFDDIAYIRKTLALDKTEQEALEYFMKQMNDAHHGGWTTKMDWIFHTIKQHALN
T2 sequence (P27986 whole entry partner, species assumed): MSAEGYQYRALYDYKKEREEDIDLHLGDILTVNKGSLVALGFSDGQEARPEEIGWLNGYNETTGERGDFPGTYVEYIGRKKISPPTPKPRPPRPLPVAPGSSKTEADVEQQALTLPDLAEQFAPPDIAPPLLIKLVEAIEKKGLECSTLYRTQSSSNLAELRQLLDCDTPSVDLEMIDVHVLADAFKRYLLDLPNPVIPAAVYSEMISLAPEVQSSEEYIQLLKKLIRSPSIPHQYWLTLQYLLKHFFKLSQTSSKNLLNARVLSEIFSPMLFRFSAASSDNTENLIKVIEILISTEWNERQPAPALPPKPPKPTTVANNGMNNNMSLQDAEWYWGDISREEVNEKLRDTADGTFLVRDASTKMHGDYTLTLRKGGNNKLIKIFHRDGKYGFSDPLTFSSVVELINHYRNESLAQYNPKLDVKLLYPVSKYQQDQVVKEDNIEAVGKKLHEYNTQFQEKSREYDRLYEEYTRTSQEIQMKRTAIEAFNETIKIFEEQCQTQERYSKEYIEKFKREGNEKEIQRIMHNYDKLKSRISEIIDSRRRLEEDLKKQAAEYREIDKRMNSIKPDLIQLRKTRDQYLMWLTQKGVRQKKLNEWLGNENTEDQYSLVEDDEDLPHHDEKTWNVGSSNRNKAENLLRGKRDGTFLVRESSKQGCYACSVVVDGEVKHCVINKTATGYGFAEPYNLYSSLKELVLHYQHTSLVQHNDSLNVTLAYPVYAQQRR
Kind of experiment: Luciferase-based luminescence assay (KinaseGlo), PI3K alpha enzymatic activity. The settings on record: inhibition of enzymatic activity, 25 μM ATP, read-out: IC50 p110α. On the procedure: as §1
(§3) PI3K alpha and PI3K delta enzymatic activity was determined by measuring the amount of ATP consumed following the kinase reaction using a luciferase-based luminescence assay (KinaseGlo®, Promega Corp., Madison, WI, USA). PI3K enzyme solutions were prepared by diluting PI3K alpha (Invitrogen Corp., Carlsbad, CA, USA) or PI3K delta (Millipore, Billerica, MA, USA) in reaction buffer, to 4× the final assay concentration (final concentrations of enzymes were 1.65 nM and 6.86 nM for PI3K alpha and PI3K delta, respectively). A substrate solution was prepared by mixing PIP2 and ATP in reaction buffer at 2× the final assay concentration (final concentrations were 50 μM and 25 μM for PIP2 and ATP respectively). 2.5 μL each of the compound and kinase mixtures were added to individual wells of white low volume 384-well assay plates and mixed by shaking. The reactions were started by adding 5 μL of substrate mixture per well and shaking. The assay plates were covered and reactions were allowed to proceed for 1 hour (PI3K alpha) or 2 hours (PI3K delta), after which 10 μL of Kinase Glo® reagent was added. The plates were briefly centrifuged and incubated for 10 minutes, after which luminescence was measured using a FlexStation plate reader (Molecular Devices, Sunnyvale, CA, USA). IC50 values were determined by curve fitting using Graphpad Prism software (Graphpad Software, La Jolla, CA, USA).
(In Kinase-Glo more light means more ATP remaining.)

For a further experiment, the target named is T3, PI3K beta (Homo sapiens, UniProt P42338).
T3 construct: purchased Millipore, Billerica, MA, USA
T3 sequence (P42338 whole entry, species assumed): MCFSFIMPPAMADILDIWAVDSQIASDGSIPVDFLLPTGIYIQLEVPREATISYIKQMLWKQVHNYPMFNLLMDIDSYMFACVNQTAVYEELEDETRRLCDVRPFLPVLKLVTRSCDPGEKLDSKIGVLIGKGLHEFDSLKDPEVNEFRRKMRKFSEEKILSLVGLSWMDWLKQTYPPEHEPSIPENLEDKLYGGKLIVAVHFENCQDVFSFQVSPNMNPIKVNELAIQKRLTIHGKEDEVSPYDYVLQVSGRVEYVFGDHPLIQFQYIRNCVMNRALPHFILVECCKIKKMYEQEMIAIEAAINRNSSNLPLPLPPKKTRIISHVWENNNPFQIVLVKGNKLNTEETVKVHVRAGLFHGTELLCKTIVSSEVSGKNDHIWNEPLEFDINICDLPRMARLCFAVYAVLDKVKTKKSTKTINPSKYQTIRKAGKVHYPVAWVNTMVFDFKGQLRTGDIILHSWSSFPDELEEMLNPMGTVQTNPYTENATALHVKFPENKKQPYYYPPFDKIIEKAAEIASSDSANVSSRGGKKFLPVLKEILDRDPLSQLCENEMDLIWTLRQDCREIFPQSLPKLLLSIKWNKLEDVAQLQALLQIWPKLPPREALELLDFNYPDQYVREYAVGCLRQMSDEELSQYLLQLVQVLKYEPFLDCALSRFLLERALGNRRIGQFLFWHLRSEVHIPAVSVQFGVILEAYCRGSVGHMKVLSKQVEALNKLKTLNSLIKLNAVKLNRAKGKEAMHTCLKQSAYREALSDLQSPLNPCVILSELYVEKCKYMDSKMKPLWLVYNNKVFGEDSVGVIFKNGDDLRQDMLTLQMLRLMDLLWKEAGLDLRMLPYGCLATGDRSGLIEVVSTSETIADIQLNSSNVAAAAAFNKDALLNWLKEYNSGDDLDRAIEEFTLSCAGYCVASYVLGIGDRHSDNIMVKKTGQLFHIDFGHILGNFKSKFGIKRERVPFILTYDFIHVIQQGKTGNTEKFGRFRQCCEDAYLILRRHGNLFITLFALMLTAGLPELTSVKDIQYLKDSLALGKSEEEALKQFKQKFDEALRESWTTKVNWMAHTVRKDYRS
T3 sequence (P27986 whole entry partner, species assumed): as the sequence (P27986 whole entry partner, species assumed) above
Kind of experiment: Luciferase-based luminescence assay (ADP Glo), PI3K beta enzymatic activity. The note with it: for pIC50: inhibition of enzymatic activity, ADP Glo, 25 μM ATP, read-out: IC50 p110β; for α/β ratio: ratio of enzymatic IC50 values, Table 1. On the procedure:
as §1, §2

Another experiment has as its target T4, PI3K delta (Homo sapiens, UniProt O00329).
T4 construct: purchased Millipore, Billerica, MA, USA
Nature of the experiment: Luciferase-based luminescence assay (KinaseGlo), PI3K delta enzymatic activity. The note with it: for pIC50: inhibition of enzymatic activity, KinaseGlo, 25 μM ATP, read-out: IC50 p110δ; for α/δ ratio: ratio of enzymatic IC50 against PI3Kα over IC50 against PI3Kδ; for β/δ ratio / γ/δ ratio: ratio of enzymatic IC50 values, Table 1. As for the experimental part: as §1, §3

Molecules are shown by their SMILES. pIC50: −log10 of the molar value.

What is called pIC50 is −log10 of the IC50, conventionally taken in molar units.

T4 sequence (O00329 whole entry, species assumed): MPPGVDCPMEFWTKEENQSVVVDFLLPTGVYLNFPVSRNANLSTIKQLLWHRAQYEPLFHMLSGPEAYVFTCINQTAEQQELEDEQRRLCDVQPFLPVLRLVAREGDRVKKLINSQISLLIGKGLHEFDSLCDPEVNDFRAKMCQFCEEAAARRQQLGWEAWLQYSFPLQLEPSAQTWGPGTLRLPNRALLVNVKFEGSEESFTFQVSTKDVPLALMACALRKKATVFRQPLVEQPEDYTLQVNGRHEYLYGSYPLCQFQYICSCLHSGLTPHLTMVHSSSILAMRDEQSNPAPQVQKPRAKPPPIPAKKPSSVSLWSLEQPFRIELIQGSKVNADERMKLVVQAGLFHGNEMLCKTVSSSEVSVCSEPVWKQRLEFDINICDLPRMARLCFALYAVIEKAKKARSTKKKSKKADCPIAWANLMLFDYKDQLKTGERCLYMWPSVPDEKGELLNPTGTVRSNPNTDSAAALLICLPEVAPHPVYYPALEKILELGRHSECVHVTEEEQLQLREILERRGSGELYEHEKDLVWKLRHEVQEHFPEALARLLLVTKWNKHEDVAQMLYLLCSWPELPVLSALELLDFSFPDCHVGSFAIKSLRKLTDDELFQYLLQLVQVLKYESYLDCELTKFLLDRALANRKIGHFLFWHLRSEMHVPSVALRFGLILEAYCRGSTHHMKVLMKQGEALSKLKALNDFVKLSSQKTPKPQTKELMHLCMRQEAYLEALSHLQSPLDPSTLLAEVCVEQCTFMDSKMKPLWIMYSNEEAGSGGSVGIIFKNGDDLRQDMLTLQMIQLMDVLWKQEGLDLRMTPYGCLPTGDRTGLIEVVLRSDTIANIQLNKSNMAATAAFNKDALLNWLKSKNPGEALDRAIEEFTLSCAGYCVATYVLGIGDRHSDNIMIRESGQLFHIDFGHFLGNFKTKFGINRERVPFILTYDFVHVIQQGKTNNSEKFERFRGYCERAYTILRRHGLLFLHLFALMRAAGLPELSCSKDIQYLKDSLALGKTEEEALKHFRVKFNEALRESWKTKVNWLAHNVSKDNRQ
T4 sequence (P27986 whole entry partner, species assumed): as the sequence (P27986 whole entry partner, species assumed) above
T1 sequence (P48736 whole entry, species assumed): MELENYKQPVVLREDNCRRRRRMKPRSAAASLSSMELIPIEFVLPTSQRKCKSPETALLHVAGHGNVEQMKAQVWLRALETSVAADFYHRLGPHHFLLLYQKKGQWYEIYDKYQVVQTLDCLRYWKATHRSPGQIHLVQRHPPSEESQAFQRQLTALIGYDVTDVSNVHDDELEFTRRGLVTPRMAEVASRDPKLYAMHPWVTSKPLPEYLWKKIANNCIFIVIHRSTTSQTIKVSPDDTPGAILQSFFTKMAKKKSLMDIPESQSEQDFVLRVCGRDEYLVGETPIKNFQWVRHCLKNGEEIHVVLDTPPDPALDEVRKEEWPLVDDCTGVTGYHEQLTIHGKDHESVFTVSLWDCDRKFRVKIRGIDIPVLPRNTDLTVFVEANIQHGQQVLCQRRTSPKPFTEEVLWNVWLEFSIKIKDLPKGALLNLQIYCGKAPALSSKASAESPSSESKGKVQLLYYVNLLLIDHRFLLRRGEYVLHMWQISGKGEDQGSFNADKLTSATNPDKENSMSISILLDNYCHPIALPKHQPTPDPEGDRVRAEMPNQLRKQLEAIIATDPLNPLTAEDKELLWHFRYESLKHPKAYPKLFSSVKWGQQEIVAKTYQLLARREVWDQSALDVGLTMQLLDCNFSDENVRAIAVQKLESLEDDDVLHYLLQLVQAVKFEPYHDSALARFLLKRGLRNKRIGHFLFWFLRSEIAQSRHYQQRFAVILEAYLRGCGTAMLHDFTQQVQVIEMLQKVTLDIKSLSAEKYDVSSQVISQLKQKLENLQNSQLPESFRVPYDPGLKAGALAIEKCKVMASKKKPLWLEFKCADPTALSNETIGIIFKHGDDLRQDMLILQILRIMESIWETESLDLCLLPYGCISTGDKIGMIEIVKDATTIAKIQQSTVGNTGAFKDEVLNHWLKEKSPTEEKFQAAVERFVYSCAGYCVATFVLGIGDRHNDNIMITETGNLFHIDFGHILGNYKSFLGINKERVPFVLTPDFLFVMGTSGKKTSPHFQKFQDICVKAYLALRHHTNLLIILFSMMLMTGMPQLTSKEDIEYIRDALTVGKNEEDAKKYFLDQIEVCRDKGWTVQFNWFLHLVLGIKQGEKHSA

For the compound `CC(C)(Cc1ccccc1C1CCN(S(C)(=O)=O)CC1)Nc1nc(N2CCOCC2)nc(-n2c(C(F)F)nc3ccccc32)n1` [Compound A73, 4-(2-(difluoromethyl)-1H-benzo[d]imidazol-1-yl)-N-(2-methyl-1-(2-(1-(methylsulfonyl)piperidin-4-yl)phenyl)propan-2-yl)-6-morpholino-1,3,5-triazin-2-amine], the pIC50 at PI3K gamma was 6.70 to 7.00. Moreover, the pIC50 on PI3K alpha was 6.30 to 6.70. Besides, at PI3K beta, the pIC50 was at least 7.00 and the α/β ratio entry is listed as “A’”. Further, on PI3K delta, the pIC50 is at least 7.00, the α/δ ratio result is “A’”, the β/δ ratio entry is listed as “D’” and the γ/δ ratio result is recorded as “B’”.
For the compound `CC(C)(Cc1ccccc1Cl)Nc1nc(N2CCOCC2)nc(-n2c(C(F)F)nc3ccccc32)n1` [Compound A16, 4-(2-(difluoromethyl)-1H-benzo[d]imidazol-1-yl)-N-(1-(2-chlorophenyl)-2-methylpropan-2-yl)-6-morpholino-1,3,5-triazin-2-amine], on PI3K gamma, the negative logarithm of the IC50 (pIC50) is 6.30 to 6.70. Further, on PI3K alpha, the pIC50 is below 6.30. Further, at PI3K beta, the pIC50 is at least 7.00 and the α/β ratio result was “A’”. Also, at PI3K delta, the negative logarithm of the IC50 (pIC50) was at least 7.00, the α/δ ratio result is listed as “A’”, the β/δ ratio entry is listed as “D’” and the γ/δ ratio entry was “C’”.
With `CC(C)(Cc1c(F)cccc1F)Nc1nc(N2CCOCC2)nc(-n2c(C(F)F)nc3ccccc32)n1` [Compound A52, 4-(2-(difluoromethyl)-1H-benzo[d]imidazol-1-yl)-N-(1-(2,6-difluorophenyl)-2-methylpropan-2-yl)-6-morpholino-1,3,5-triazin-2-amine], at PI3K gamma, the negative logarithm of the IC50 (pIC50) is at least 7.00. Also, the negative-log IC50 (pIC50) at PI3K alpha is below 6.30. On PI3K beta, the pIC50 was below 6.30 and the α/β ratio result is recorded as “D’”. In addition, on PI3K delta, the pIC50 is at least 7.00, the α/δ ratio entry is recorded as “C’”, the β/δ ratio result is reported as “B’” and the γ/δ ratio entry is “D’”.
With `COc1ccc(-c2ccccc2CC(C)(C)Nc2nc(N3CCOCC3)nc(-n3c(C(F)F)nc4ccccc43)n2)cc1` [Compound A67, 4-(2-(difluoromethyl)-1H-benzo[d]imidazol-1-yl)-N-(1-(4′-methoxybiphenyl-2-yl)-2-methylpropan-2-yl)-6-morpholino-1,3,5-triazin-2-amine], on PI3K gamma, the negative logarithm of the IC50 (pIC50) was below 6.30. Also, the negative logarithm of the IC50 (pIC50) on PI3K alpha is below 6.30. Moreover, at PI3K beta, the negative logarithm of the IC50 (pIC50) was 6.30 to 6.70 and the α/β ratio entry is listed as “D’”. Also, on PI3K delta, the pIC50 was at least 7.00, the α/δ ratio result was “A’”, the β/δ ratio entry was “B’” and the γ/δ ratio result is on record as “A’”.
For `COc1ccccc1CC(C)(C)Nc1nc(N2CCOCC2)nc(-n2c(C(F)F)nc3ccccc32)n1` [Compound A19, 4-(2-(difluoromethyl)-1H-benzo[d]imidazol-1-yl)-N-(1-(2-methoxyphenyl)-2-methylpropan-2-yl)-6-morpholino-1,3,5-triazin-2-amine], the pIC50 on PI3K gamma is 6.30 to 6.70. The pIC50 on PI3K alpha is below 6.30. At PI3K beta, the pIC50 was 6.30 to 6.70 and the α/β ratio result is recorded as “D’”. On PI3K delta, the negative-log IC50 (pIC50) was at least 7.00, the α/δ ratio result is “B’”, the β/δ ratio result is “B’” and the γ/δ ratio entry is “B’”.
`Cc1ccccc1-c1ccccc1CC(C)(C)Nc1nc(N2CCOCC2)nc(-n2c(C(F)F)nc3ccccc32)n1` [Compound A60, 4-(2-(difluoromethyl)-1H-benzo[d]imidazol-1-yl)-N-(2-methyl-1-(2′-methylbiphenyl-2-yl)propan-2-yl)-6-morpholino-1,3,5-triazin-2-amine]: the negative-log IC50 (pIC50) at PI3K gamma is below 6.30. On PI3K alpha, the pIC50 is below 6.30. On PI3K beta, the pIC50 was at least 7.00 and the α/β ratio entry was “A’”. On PI3K delta, the pIC50 is at least 7.00, the α/δ ratio result was “A’”, the β/δ ratio result was “D’” and the γ/δ ratio entry is recorded as “A’”.
As for `Cc1cc(-c2ccccc2CC(C)(C)Nc2nc(N3CCOCC3)nc(-n3c(C(F)F)nc4ccccc43)n2)ccn1` [Compound A43, 4-(2-(difluoromethyl)-1H-benzo[d]imidazol-1-yl)-N-(2-methyl-1-(2-(2-methylpyridin-4-yl)phenyl)propan-2-yl)-6-morpholino-1,3,5-triazin-2-amine], the negative logarithm of the IC50 (pIC50) on PI3K gamma is below 6.30. Further, the negative logarithm of the IC50 (pIC50) on PI3K alpha is 6.30 to 6.70. Moreover, at PI3K beta, the negative-log IC50 (pIC50) was at least 7.00 and the α/β ratio entry is given as “A’”. For the same compound, at PI3K delta, the negative-log IC50 (pIC50) was at least 7.00, the α/δ ratio result was “A’”, the β/δ ratio entry is reported as “D’” and the γ/δ ratio entry is reported as “A’”.
Take `Cc1cccc(CC(C)(C)Nc2nc(N3CCOCC3)nc(-n3c(C(F)F)nc4ccccc43)n2)c1` [Compound A49, 4-(2-(difluoromethyl)-1H-benzo[d]imidazol-1-yl)-N-(2-methyl-1-m-tolylpropan-2-yl)-6-morpholino-1,3,5-triazin-2-amine]: at PI3K gamma, the negative logarithm of the IC50 (pIC50) is 6.30 to 6.70. In addition, at PI3K alpha, the pIC50 was below 6.30. Further, on PI3K beta, the negative logarithm of the IC50 (pIC50) was at least 7.00 and the α/β ratio entry is recorded as “A’”. At PI3K delta, the negative-log IC50 (pIC50) is at least 7.00, the α/δ ratio entry is reported as “A’”, the β/δ ratio result is recorded as “D’” and the γ/δ ratio entry is reported as “C’”.
Consider `CC(C)(Cc1ccccc1)Nc1nc(N2CCOCC2)nc(-n2c(C(F)F)nc3ccccc32)n1` [Compound A14, 4-(2-(difluoromethyl)-1H-benzo[d]imidazol-1-yl)-N-(2-methyl-1-phenylpropan-2-yl)-6-morpholino-1,3,5-triazin-2-amine], for which, on PI3K gamma, the pIC50 was 6.30 to 6.70. Also, at PI3K alpha, the negative logarithm of the IC50 (pIC50) is below 6.30. At PI3K beta, the pIC50 is at least 7.00 and the α/β ratio entry is “A’”. For the same compound, on PI3K delta, the negative logarithm of the IC50 (pIC50) was at least 7.00, the α/δ ratio entry is “A’”, the β/δ ratio result is listed as “D’” and the γ/δ ratio entry is recorded as “A’”.
For the compound `CC(C)(Cc1cccc2ccccc12)Nc1nc(N2CCOCC2)nc(-n2c(C(F)F)nc3ccccc32)n1` [Compound A27, 4-(2-(difluoromethyl)-1H-benzo[d]imidazol-1-yl)-N-(2-methyl-1-(naphthalen-1-yl)propan-2-yl)-6-morpholino-1,3,5-triazin-2-amine], the pIC50 at PI3K gamma is at least 7.00. Further, the pIC50 on PI3K alpha was below 6.30. At PI3K beta, the negative-log IC50 (pIC50) is at least 7.00 and the α/β ratio entry was “B’”. Further, on PI3K delta, the pIC50 is at least 7.00, the α/δ ratio entry was “A’”, the β/δ ratio result was “D’” and the γ/δ ratio result is recorded as “D’”.
As to `CC(C)(Cc1cccc(F)c1)Nc1nc(N2CCOCC2)nc(-n2c(C(F)F)nc3ccccc32)n1` [Compound A39, 4-(2-(difluoromethyl)-1H-benzo[d]imidazol-1-yl)-N-(1-(3-fluorophenyl)-2-methylpropan-2-yl)-6-morpholino-1,3,5-triazin-2-amine], on PI3K gamma, the pIC50 is 6.30 to 6.70. The negative-log IC50 (pIC50) on PI3K alpha is below 6.30. For the same compound, on PI3K beta, the negative-log IC50 (pIC50) was at least 7.00 and the α/β ratio entry is on record as “A’”. Moreover, on PI3K delta, the negative logarithm of the IC50 (pIC50) was at least 7.00, the α/δ ratio entry was “A’”, the β/δ ratio result is listed as “D’” and the γ/δ ratio entry is given as “B’”.

Values taken from US12059422B2 (MEI Pharma, Inc., priority 2011, dated 2024).
